Laboratory results: patent US10798941B2, “Microbiocidal oxadiazole derivatives” (SYNGENTA PARTICIPATIONS AG, priority 2016, dated 2020)

tested on: Glomerella Lagenarium (Colletotrichum Lagenarium); assay: Glomerella lagenarium (Colletotrichum lagenarium) liquid culture / cucumber / preventative (anthracnose); format: cell-based; settings: Colletotrichum orbiculare; 20 ppm in the applied formulation; liquid culture in PDB, 24° C., inhibition of growth measured photometrically 3 to 4 days after application, vs untreated; read-out: disease control
Method: Mycelia fragments or conidia suspensions of a fungus prepared either freshly from liquid cultures of the fungus or from cryogenic storage, are directly mixed into nutrient broth. DMSO solutions of the test compound (max. 10 mg/ml) are diluted with 0.025% Tween20 by a factor of 50 and 10 μl of this solution is pipetted into a microtiter plate (96-well format). The nutrient broth containing the fungal spores/mycelia fragments is then added to give an end concentration of the tested compound. The test plates are incubated in the dark at 24° C. and 96% relative humidity. The inhibition of fungal growth is determined photometrically after 2 to 7 days, depending on the pathosystem, and percent antifungal activity relative to the untreated check is calculated.
Conidia of the fungus from cryogenic storage are directly mixed into nutrient broth (PDB—potato dextrose broth). After placing a (DMSO) solution of test compound into a microtiter plate (96-well format), the nutrient broth containing the fungal spores is added.
The following compounds at 20 ppm in the applied formulation give at least 80% disease control in this test when compared to untreated control under the same conditions, which show extensive disease development.

Compound | inhibition of growth at 20 ppm [%]
Cc1ccc2c(C=O)cn(Cc3ccc(-c4noc(C(F)(F)F)n4)cc3)c2c1 [Compound 1.51, 6-methyl-1-[[4-[5-(trifluoromethyl)-1,2,4-oxadiazol-3-yl]phenyl]methyl]indole-3-carbaldehyde] | ≥ 80
FC(F)(F)c1nc(-c2ccc(Cn3ccc4ccc(Cl)cc43)cc2)no1 [Compound 1.64, 3-[4-[(6-chloroindol-1-yl)methyl]phenyl]-5-(trifluoromethyl)-1,2,4-oxadiazole] | ≥ 80
COC(=O)c1cccc2c1ccn2Cc1ccc(-c2noc(C(F)(F)F)n2)cc1 [Compound 1.66, methyl 1-[[4-[5-(trifluoromethyl)-1,2,4-oxadiazol-3-yl]phenyl]methyl]indole-4-carboxylate] | ≥ 80
COC(=O)c1cc(C(F)(F)F)n(Cc2ccc(-c3noc(C(F)(F)F)n3)cc2)c1C [Compound 1.68, methyl 2-methyl-5-(trifluoromethyl)-1-[[4-[5-(trifluoromethyl)-1,2,4-oxadiazol-3-yl]phenyl]methyl]pyrrole-3-carboxylate] | ≥ 80
FC(F)(F)c1nc(-c2ccc(Cn3c(Br)nc(Br)c3Br)cc2)no1 [Compound 1.69, 3-[4-[(2,4,5-tribromoimidazol-1-yl)methyl]phenyl]-5-(trifluoromethyl)-1,2,4-oxadiazole] | ≥ 80
Cc1c(C=O)c2ccccc2n1Cc1ccc(-c2noc(C(F)(F)F)n2)cc1 [Compound 1.70, 2-methyl-1-[[4-[5-(trifluoromethyl)-1,2,4-oxadiazol-3-yl]phenyl]methyl]indole-3-carbaldehyde] | ≥ 80
FC(F)(F)c1nc(-c2ccc(Cn3c(Br)nc(Cl)c3Cl)cc2)no1 [Compound 1.72, 3-[4-[(2-bromo-4,5-dichloro-imidazol-1-yl)methyl]phenyl]-5-(trifluoromethyl)-1,2,4-oxadiazole] | ≥ 80
CCOC(=O)c1nn(Cc2ccc(-c3noc(C(F)(F)F)n3)cc2)cc1-c1ccccc1 [Compound 1.84, ethyl 4-phenyl-1-[[4-[5-(trifluoromethyl) 1,2,4-oxadiazol-3-yl]phenyl]methyl]pyrazole-3-carboxylate] | ≥ 80
Fc1cc2ncn(Cc3ccc(-c4noc(C(F)(F)F)n4)cc3)c2cc1Cl [Compound 1.92, 3-[4-[(6-chloro-5-fluoro-benzimidazol-1-yl)methyl]phenyl]-5-(trifluoromethyl)-1,2,4-oxadiazole] | ≥ 80
FC(F)(F)c1nc(-c2ccc(Cn3cncn3)c(C(F)(F)F)c2)no1 [Compound 1.98, 3-[4-(1,2,4-triazol-1-ylmethyl)-3-(trifluoromethyl)phenyl]-5-(trifluoromethyl)-1,2,4-oxadiazole] | ≥ 80
Cc1cc(C)n(Cc2ccc(-c3noc(C(F)(F)F)n3)cc2Cl)n1 [Compound 1.100, 3-[3-chloro-4-[(3,5-dimethylpyrazol-1-yl)methyl]phenyl]-5-(trifluoromethyl)-1,2,4-oxadiazole] | ≥ 80
FC(F)(F)c1nc(-c2ccc(Cn3cnc(Br)c3)c(C(F)(F)F)c2)no1 [Compound 1.103, 3-[4-[(4-bromoimidazol-1-yl)methyl]-3-(trifluoromethyl)phenyl]-5-(trifluoromethyl)-1,2,4-oxadiazole] | ≥ 80
COC(=O)c1ncn(Cc2ccc(-c3noc(C(F)(F)F)n3)cc2Cl)c1C(=O)OC [Compound 1.104, dimethyl 1-[[2-chloro-4-[5-(trifluoromethyl)-1,2,4-oxadiazol-3-yl]phenyl]methyl]imidazole-4,5-dicarboxylate] | ≥ 80
N#Cc1ncn(Cc2ccc(-c3noc(C(F)(F)F)n3)cc2Cl)c1C#N [Compound 1.106, 1-[[2-chloro-4-[5-(trifluoromethyl)-1,2,4-oxadiazol-3-yl]phenyl]methyl]imidazole-4,5-dicarbonitrile] | ≥ 80
FC(F)(F)c1nc(-c2ccc(Cn3cnc4ccccc43)c(Cl)c2)no1 [Compound 1.110, 3-[4-(benzimidazol-1-ylmethyl)-3-chloro-phenyl]-5-(trifluoromethyl)-1,2,4-oxadiazole] | ≥ 80
FC(F)(F)c1nc(-c2ccc(Cn3cc(Cl)cn3)c(Cl)c2)no1 [Compound 1.111, 3-[3-chloro-4-[(4-chloropyrazol-1-yl)methyl]phenyl]-5-(trifluoromethyl)-1,2,4-oxadiazole] | ≥ 80

Compound | inhibition of growth at 20 ppm [%]
FC(F)(F)c1nc(-c2ccc(Cn3nnnc3-c3ccc(Cl)cc3)c(Cl)c2)no1 [Compound 1.113, 3-[3-chloro-4-[[5-(4-chlorophenyl)tetrazol-1-yl]methyl]phenyl]-5-(trifluoromethyl)-1,2,4-oxadiazole] | ≥ 80
FC(F)(F)c1nc(-c2ccc(Cn3cc(I)cn3)c(Cl)c2)no1 [Compound 1.114, 3-[3-chloro-4-[(4-iodopyrazol-1-yl)methyl]phenyl]-5-(trifluoromethyl)-1,2,4-oxadiazole] | ≥ 80
FC(F)(F)c1nc(-c2ccc(Cn3cc(Br)cn3)c(Cl)c2)no1 [Compound 1.115, 3-[4-[(4-bromopyrazol-1-yl)methyl]-3-chloro-phenyl]-5-(trifluoromethyl)-1,2,4-oxadiazole] | ≥ 80
COc1cc(-c2noc(C(F)(F)F)n2)ccc1Cn1cncc1Br [Compound 1.116, 3-[4-[(5-bromoimidazol-1-yl)methyl]-3-methoxy-phenyl]-5-(trifluoromethyl)-1,2,4-oxadiazole] | ≥ 80
COc1cc(-c2noc(C(F)(F)F)n2)ccc1Cn1cnc(Br)c1 [Compound 1.117, 3-[4-[(4-bromoimidazol-1-yl)methyl]-3-methoxy-phenyl]-5-(trifluoromethyl)-1,2,4-oxadiazole] | ≥ 80
Cc1nn(Cc2ccc(-c3noc(C(F)(F)F)n3)cc2F)c(C)c1Cl [Compound 1.127, 3-[4-[(4-chloro-3,5-dimethyl-pyrazol-1-yl)methyl]-3-fluoro-phenyl]-5-(trifluoromethyl)-1,2,4-oxadiazole] | ≥ 80
Fc1cc(-c2noc(C(F)(F)F)n2)ccc1Cn1nnnc1-c1ccc(Cl)cc1 [Compound 1.130, 3-[4-[[5-(4-chlorophenyl)tetrazol-1-yl)methyl]-3-fluoro-phenyl]-5-(trifluoromethyl)-1,2,4-oxadiazole] | ≥ 80
COC(=O)c1ncn(Cc2ccc(-c3noc(C(F)(F)F)n3)cn2)n1 [Compound 1.138, methyl 1-[[5-[5-(trifluoromethyl)-1,2,4-oxadiazol-3-yl]-2-pyridyl]methyl]-1,2,4-triazole-3-carboxylate] | ≥ 80
Cc1cc(C)n(Cc2ccc(-c3noc(C(F)(F)F)n3)cn2)n1 [Compound 1.140, 3-[6-[(3,5-dimethylpyrazol-1-yl)methyl]-3-pyridyl]-5-(trifluoromethyl)-1,2,4-oxadiazole] | ≥ 80
CCOC(=O)c1ncn(Cc2ccc(-c3noc(C(F)(F)F)n3)cc2)c1-c1ccccc1 [Compound 1.188, ethyl 5-phenyl-1-[[4-[5-(trifluoromethyl)-1,2,4-oxadiazol-3-yl]phenyl]methyl]imidazole-4-carboxylate] | ≥ 80
CCOC(=O)c1c(-c2ccccc2)ncn1Cc1ccc(-c2noc(C(F)(F)F)n2)cc1 [Compound 1.189, ethyl 5-phenyl-3-[[4-[5-(trifluoromethyl)-1,2,4-oxadiazol-3-yl]phenyl]methyl]imidazole-4-carboxylate] | ≥ 80
Cc1nc2cc(C(F)(F)F)ccc2n1Cc1ccc(-c2noc(C(F)(F)F)n2)cc1 [Compound 1.191, 3-[4-[[2-methyl-5-(trifluoromethyl)benzimidazol-1-yl]methyl]phenyl]-5-(trifluoromethyl)-1,2,4-oxadiazole] | ≥ 80
Cc1cc(C)n(Cc2ccc(-c3noc(C(F)(F)F)n3)nc2)n1 [Compound 1.284, 3-[5-[(3,5-dimethylpyrazol-1-yl)methyl]-2-pyridyl]-5-(trifluoromethyl)-1,2,4-oxadiazole] | ≥ 80
C[C@@H]1CN(Cc2ccc(-c3noc(C(F)(F)F)n3)cc2)C[C@H](C)O1 [Compound 1.307, (2R,6S)-2,6-dimethyl-4-[[4-[5-(trifluoromethyl)-1,2,4-oxadiazol-3-yl]phenyl]methyl]morpholine] | ≥ 80
Cc1cc(C)n(CCc2ccc(-c3noc(C(F)(F)F)n3)cc2)n1 [Compound 1.309, 3-[4-[2-(3,5-dimethylpyrazol-1-yl)ethyl]phenyl]-5-(trifluoromethyl)-1,2,4-oxadiazole] | ≥ 80
